# Patent publication US12059425B2, “Heterocyclic compounds and uses thereof” (Kumquat Biosciences Inc., priority 2022, dated 2024)
# Experiments:
# [1] = target: T1, K-Ras G12D (Homo sapiens, UniProt P01116, G12D); assay: PPI-HTRF assay, K-Ras G12D / SOS1 interaction; assay type: biochemical; details: HTRF, K-Ras G12D; read-out: PPI-HTRF-5 nM (K-Ras G12D IC50)
# T1 construct: made in house; host or cells: E. coli, e.g. BL21 (DE3)
# Method in brief: (§1)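 Compound in DMSO is dispensed first, then GST-K-Ras plus anti-GST-Eu(K), then His-hSOS1 plus anti-6His-XL665. Plates incubate about 10 min or longer before HTRF measurement at 620 and 665 nm. IC50 values are derived from the emission ratio for each K-Ras variant.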
# [2] = target: T2, K-Ras G12S (Homo sapiens, UniProt P01116, G12S); assay: PPI-HTRF assay, K-Ras G12S / SOS1 interaction; assay type: biochemical; details: read-out: PPI-HTRF-5 nM (K-Ras G12S IC50)
# T2 construct: made in house; host or cells: E. coli, e.g. BL21 (DE3)
# Method in brief: as §1
# [3] = target: T3, wildtype K-Ras (Homo sapiens, UniProt P01116); assay: PPI-HTRF assay, wildtype K-Ras / SOS1 interaction; assay type: biochemical; details: HTRF, K-Ras wt; read-out: PPI-HTRF-5 nM (K-Ras wt IC50)
# T3 construct: made in house; host or cells: E. coli, e.g. BL21 (DE3)
# Method in brief: as §1
# [4] = tested on: GP2D cells; assay: Ras cellular assay, cell proliferation GP2D; assay type: cell-based
# Method in brief: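 Growth inhibition read by CellTiter-Glo luminescence roughly 5 days after compound addition, which followed overnight plating of G12D-mutant GP2D cells (e.g., 800 per well). Compounds were tested as a serial dilution (e.g., 9 points, 3-fold), with IC50 fitted by four-parameter model.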
# [5] = tested on: A549 cells; assay: Ras cellular assay, cell proliferation A549; assay type: cell-based; details: Homo sapiens
# Method in brief: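 G12S-mutant A549 cells (800/well) in RPMI-1640 plus 10% heat-inactivated FBS, standard or ultra-low attachment 384-well plates, dosed the day after plating with a 10-point 3-fold series. Viability by CellTiter-Glo luminescence about 6 days later; IC50 from four-parameter fit.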
# [6] = tested on: SW620 cells; assay: Ras cellular assay, cell proliferation SW620; assay type: cell-based; details: Homo sapiens, SW-620
# Source text: For example, this assay can be also used to assess selective growth inhibition of a mutant Ras protein relative to a wildtype, or relative to a different mutant Ras protein.
# [7] = target: T4, K-Ras G12V (Homo sapiens, UniProt P01116, G12V); assay: PPI-HTRF assay, K-Ras G12V / SOS1 interaction; assay type: biochemical; details: HTRF, K-Ras G12V; read-out: PPI-HTRF-5 nM (K-Ras G12V IC50)
# T4 construct: made in house; host or cells: E. coli, e.g. BL21 (DE3)
# Method in brief: as §1
# T2 sequence (P01116 1-188 isoform P01116-2 G12S): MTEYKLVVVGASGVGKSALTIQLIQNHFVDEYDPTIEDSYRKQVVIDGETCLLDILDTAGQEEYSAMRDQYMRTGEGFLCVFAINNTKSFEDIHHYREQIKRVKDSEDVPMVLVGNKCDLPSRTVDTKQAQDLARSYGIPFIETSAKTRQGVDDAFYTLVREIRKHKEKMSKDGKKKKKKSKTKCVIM
# T1 sequence (P01116 1-188 isoform P01116-2 G12D): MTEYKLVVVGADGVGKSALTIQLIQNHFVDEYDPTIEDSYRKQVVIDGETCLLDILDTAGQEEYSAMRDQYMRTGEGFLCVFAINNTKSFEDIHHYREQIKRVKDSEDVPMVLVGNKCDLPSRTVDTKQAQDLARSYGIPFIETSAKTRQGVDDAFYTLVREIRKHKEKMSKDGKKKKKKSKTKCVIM
# T4 sequence (P01116 1-188 isoform P01116-2 G12V): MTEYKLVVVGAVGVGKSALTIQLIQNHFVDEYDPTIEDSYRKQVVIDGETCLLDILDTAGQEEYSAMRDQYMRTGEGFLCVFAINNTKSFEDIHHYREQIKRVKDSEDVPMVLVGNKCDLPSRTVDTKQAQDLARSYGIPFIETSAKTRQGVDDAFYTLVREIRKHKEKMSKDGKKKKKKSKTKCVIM
# T3 sequence (P01116 1-188 isoform P01116-2): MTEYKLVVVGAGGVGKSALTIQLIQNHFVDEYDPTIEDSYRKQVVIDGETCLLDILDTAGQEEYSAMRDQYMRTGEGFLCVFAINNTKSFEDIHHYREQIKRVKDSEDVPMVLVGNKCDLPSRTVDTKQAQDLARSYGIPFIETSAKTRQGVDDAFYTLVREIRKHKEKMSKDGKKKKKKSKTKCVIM
IC50 [1] [µM],IC50 [2] [µM],IC50 [3] [µM],IC50 [5] [µM],IC50 [6] [µM],IC50 [7] [µM],SMILES,IC50 [4] [µM]
< 5,< 5,< 5,< 5,< 5,< 5,"N#CCC1CCC2COc3c(Cl)c(-c4ccc(F)c5sc(N)c(C#N)c45)c(F)c4nc(OC[C@@]56CCCN5C[C@H](F)C6)nc(c34)N12 (stereo partly drawn) [compound 107, 2-amino-4-(6-chloro-11-(cyanomethyl)-4-fluoro-2-(((2R,7aS)-2-fluorotetrahydro-1H-pyrrolizin-7a(5H)-yl)methoxy)-8a,9,10,11-tetrahydro-8H-pyrrolo[2′,1′:3,4][1,4]oxazepino[5,6,7-de]quinazolin-5-yl)-7-fluorobenzo[b]thiophene-3-carbonitrile]",< 5
< 5,< 5,< 5,> 5,< 5,< 5,"N#Cc1c(N)sc2c(F)ccc(-c3c(Cl)c4c5c(nc(OC[C@@]67CCCN6C[C@H](F)C7)nc5c3F)N3CC5(CCCC3CCO4)CN(C(=O)C3CC3(F)F)C5)c12 (stereo partly drawn) [compound 127, 2-amino-4-(3-chloro-1′-(2,2-difluorocyclopropane-1-carbonyl)-1-fluoro-14-(((2R,7aS)-2-fluorotetrahydro-1H-pyrrolizin-7a(5H)-yl)methoxy)-5,6,6a,7,8,9-hexahydro-11H-spiro[azepino[1′,2′:5,6][1,5]oxazocino[4,3,2-de]quinazoline-10,3′-azetidin]-2-yl)-7-fluorobenzo[b]thiophene-3-carbonitrile]",< 5
< 5,< 5,< 5,< 5,< 5,< 5,"N#Cc1c(N)sc2c(F)ccc(-c3c(Cl)c4c5c(nc(OCC67CCCN6C[C@H](F)C7)nc5c3F)N3CCCC[C@@H]3CO4)c12 (stereo partly drawn) [compound 103, 2-amino-4-((5aR)-3-chloro-1-fluoro-12-(((2R)-2-fluorotetrahydro-1H-pyrrolizin-7a(5H)-yl)methoxy)-5,5a,6,7,8,9-hexahydropyrido[2′,1′:3,4][1,4]oxazepino [5,6,7-de]quinazolin-2-yl)-7-fluorobenzo[b]thiophene-3-carbonitrile]",< 5
< 5,< 5,< 5,< 5,< 5,< 5,"N#Cc1c(N)sc2c(F)ccc(-c3c(Cl)c4c5c(nc(OC[C@@]67CCCN6C[C@H](F)C7)nc5c3F)N3CC(F)(F)C[C@@H]3CO4)c12 [compound 176, 2-amino-4-((8aR)-6-chloro-4,10,10-trifluoro-2-(((2R,7aS)-2-fluorotetrahydro-1H-pyrrolizin-7a(5H)-yl)methoxy)-8a,9,10,11-tetrahydro-8H-pyrrolo[2′,1′:3,4][1,4]oxazepino[5,6,7-de]quinazolin-5-yl)-7-fluorobenzo[b]thiophene-3-carbonitrile]",< 5

SMILES,IC50 [1] [µM],IC50 [2] [µM],IC50 [3] [µM],IC50 [5] [µM],IC50 [6] [µM],IC50 [7] [µM],IC50 [4] [µM]
"CN1c2nc(OC[C@@]34CCCN3C[C@H](F)C4)nc3c(F)c(-c4ccc(F)c5sc(N)c(C#N)c45)c(Cl)c(c23)OCC2CN(C(=O)[C@@H]3N[C@H]3C3CC3)CC21 (stereo partly drawn) [compound 146, 2-amino-4-(6-chloro-10-((2R,3S)-3-cyclopropylaziridine-2-carbonyl)-4-fluoro-2-(((2R,7aS)-2-fluorotetrahydro-1H-pyrrolizin-7a(5H)-yl)methoxy)-12-methyl-8a,9,10,11,11a,12-hexahydro-8H-pyrrolo[3′,4′:6,7][1,5]oxazocino[4,3,2-de]quinazolin-5-yl)-7-fluorobenzo[b]thiophene-3-carbonitrile]",< 5,< 5,< 5,> 5,< 5,< 5,< 5
